Measured values: US20080267948A1, “Croos-B Structure Binding Compounds” (priority 2005, published 2008)
Entries after “also recorded” stand apart in the source; their conditions may differ.

Key:
Hb-AGE = target: T1, Hb-AGE (Homo sapiens, UniProt P68871+P69905); assay: ELISA binding of tPA to immobilized Hb-AGE after pre-incubation with compounds; conditions: then tPA; for influence on tPA binding to immobilized Hb-AGE: Hb-AGE first overlayed with compound (concentration series); for % tPA binding (after compound incubation), HbAGE: immobilized Hb-AGE first exposed to 500 μg/ml compound, control = 100
T1 construct: purchased Sigma-Aldrich H7379
Method: Compounds were now diluted 10× in PBS/0.1% Tween20 (500 μg/ml compound). […] With the selection, similar binding assays are performed with misfolded OVA and Aβ. Finally, concentration series of the selected compounds are used in the binding studies.

amyloid-β(1-40) E22Q = target: T2, amyloid-β(1-40) E22Q (Homo sapiens, UniProt P05067, E693Q); assay: ELISA binding of tPA to immobilized Aβ after pre-incubation with compounds; conditions: for influence on tPA binding to immobilized Aβ: Aβ first overlayed with compound (concentration series), then tPA; for % tPA binding (after compound incubation), Aβ: 1 μg/ml coated Aβ first exposed to 500 μg/ml compound, then 80 nM tPA, control = 100
T2 construct: For similar ELISA's with DOVA and Aβ(1-40) E22Q, 1 μg/ml DOVA or Aβ was coated; purchased Peptide facility, Dutch Cancer Institute, Amsterdam; host or cells: synthetic peptide
Method: (§1) Compounds were now diluted 10× in PBS/0.1% Tween20 (500 μg/ml compound). […] With this approach a further selection of the compounds was achieved. Now, compounds that at least interact with HB-AGE are selected. With the selection, similar binding assays are performed with misfolded OVA and Aβ. Finally, concentration series of the selected compounds are used in the binding studies.

[1] = target: T3, heat-denatured misfolded ovalbumin (DOVA) (Gallus gallus, UniProt P01012); assay: ELISA binding of tPA to immobilized misfolded ovalbumin after pre-incubation with compounds; set-up: species or system chicken; conditions: for influence on tPA binding to immobilized misfolded OVA: misfolded OVA first overlayed with compound (concentration series), then tPA; for activity at 500 µg/mL: read-out: % tPA binding (after compound incubation), DOVA
T3 construct: purchased Sigma A5503
T3 sequence (P01012 2-386 limits assumed): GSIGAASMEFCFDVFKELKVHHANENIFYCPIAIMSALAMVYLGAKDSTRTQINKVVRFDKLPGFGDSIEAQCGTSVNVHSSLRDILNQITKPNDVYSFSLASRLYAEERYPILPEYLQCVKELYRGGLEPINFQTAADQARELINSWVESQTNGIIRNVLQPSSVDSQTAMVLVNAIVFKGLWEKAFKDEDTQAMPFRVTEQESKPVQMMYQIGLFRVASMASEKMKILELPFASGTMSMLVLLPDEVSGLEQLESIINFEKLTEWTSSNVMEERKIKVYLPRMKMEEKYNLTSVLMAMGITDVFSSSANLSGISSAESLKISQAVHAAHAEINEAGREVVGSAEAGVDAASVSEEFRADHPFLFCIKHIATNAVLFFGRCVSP
Method: as §1

heat-denatured ovalbumin = target: T4, heat-denatured ovalbumin (Gallus gallus, UniProt P01012); assay: Thioflavin T fluorescence of ovalbumin and small compounds; set-up: species or system chicken
T4 construct: purchased Sigma A5503
T4 sequence (P01012 1-386): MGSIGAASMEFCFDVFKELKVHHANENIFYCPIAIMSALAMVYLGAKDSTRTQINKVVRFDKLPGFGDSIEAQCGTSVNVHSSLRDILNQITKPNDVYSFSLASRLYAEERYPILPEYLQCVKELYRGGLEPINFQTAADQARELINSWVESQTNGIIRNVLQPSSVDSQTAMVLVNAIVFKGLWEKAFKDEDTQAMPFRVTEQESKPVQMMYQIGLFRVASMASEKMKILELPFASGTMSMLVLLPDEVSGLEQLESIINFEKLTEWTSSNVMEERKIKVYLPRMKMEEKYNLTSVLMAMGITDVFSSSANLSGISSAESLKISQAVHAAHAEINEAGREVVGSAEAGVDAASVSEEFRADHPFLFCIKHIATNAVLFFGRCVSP
Method in brief: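 Heat-denatured ovalbumin at 1 mg/ml in PBS, alone, with 1% v/v DMSO or with 1 mg/ml compound (also heat-denatured after compound addition), mixed 1:9 with 25 μM ThT in 50 mM glycine pH 9.0. Fluorescence read in duplicate at 435 nm excitation, 485 nm emission.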

[2] = test system: misfolded proteins (Hb-AGE, Aβ); assay: Binding of misfolded proteins from solution to immobilized small compounds (overall); conditions: compounds coated on ELISA plates, Hb-AGE or Aβ in solution
Method: To test the ability of the twelve selected compounds (see Table 7) to bind to misfolded proteins, the compounds were immobilized at 10/100/1000 μg/ml in the wells of 96-wells Greiner Microlon high binding plates, Nunc amino Immobilizer plates and Nunc Maxisorp plates. Compounds were coated in 100 mM NaHCO3 pH 9.6, 50 μl/well, 1 h at room temperature with agitation. As a control, wells were coated with buffer only. After blocking of the plates, wells were overlayed with solutions of 0.1/1/10 μg/ml Hb-AGE or 10/100 μg/ml Aβ, in binding buffer (PBS/0.1% Tween20). After washing, binding of Hb-AGE was assessed by overlaying wells with 1 μg/ml hybridoma antibody 4B5, which binds to glycations(^2), followed by RAMPO. Binding of Aβ was visualized using 500× diluted anti-Aβ antibodies (mouse antibody beta-amyloid Clone 6F/3D #M0872, lot 00003503, DAKOCytomation; β-amyloid (H-43) SC-9129, 200 μg/ml rabbit polyclonal IgG, Santa Cruz Biotechnology) and RAMPO/SWARPO in a 1:1 ratio. Finally, wells were overlayed with OPD/H2O2 solution, and H2SO4, before absorbance readings at 490 nm.

ovalbumin = target: T5, ovalbumin (Gallus gallus, UniProt P01012); assay: Transmission electron microscopy of ovalbumin heated in the presence of small compounds; set-up: species or system chicken; conditions: 1 mg/ml ovalbumin heated with 1 mg/ml compound
T5 construct: purchased Sigma A5503
T5 sequence (P01012 1-386): T4 sequence (P01012 1-386)
Method in brief: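 Ovalbumin at 1 mg/ml was applied to carbon-coated Formvar copper grids, washed with PBS and water, then stained 2 min in 2% methylcellulose with 0.4% uranyl acetate, pH 4. Grids were dried and imaged by TEM at 80 kV.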

T1 sequence (P69905 2-142 limits assumed): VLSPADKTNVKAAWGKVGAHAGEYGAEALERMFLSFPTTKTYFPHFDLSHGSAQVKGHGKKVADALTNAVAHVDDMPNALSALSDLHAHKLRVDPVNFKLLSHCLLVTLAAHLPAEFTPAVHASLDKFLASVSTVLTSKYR
T1 sequence (P68871 2-147 limits assumed): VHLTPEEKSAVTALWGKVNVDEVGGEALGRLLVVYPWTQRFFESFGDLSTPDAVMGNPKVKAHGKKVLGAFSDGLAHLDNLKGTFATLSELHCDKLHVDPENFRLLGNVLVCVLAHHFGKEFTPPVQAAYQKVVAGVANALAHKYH
T2 sequence (P05067 672-711 E693Q): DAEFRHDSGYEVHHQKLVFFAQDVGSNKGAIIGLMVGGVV

O=c1oc2c(O)c(O)cc3c(=O)oc4c(O)c(O)cc1c4c23 [compound 117, Ellagic acid hydrate]
influence on tPA binding to immobilized Hb-AGE (Hb-AGE): Stimulated tPA binding to immobilized misfolded protein (Hb-
influence on tPA binding to immobilized Aβ (amyloid-β(1-40) E22Q): Stimulated tPA binding to immobilized misfolded protein (Hb-
influence on tPA binding to immobilized misfolded OVA [1]: Stimulated tPA binding to immobilized misfolded protein (Hb-
influence on Thioflavin T fluorescence with misfolded OVA (heat-denatured ovalbumin; 1 mg/ml compound, 1 mg/ml OVA): Inhibition on Thioflavin T fluorescence with misfolded OVA
reduction in Thioflavin T fluorescence enhancement, compound and OVA heated together (heat-denatured ovalbumin; 1 mg/ml compound, 1 mg/ml OVA, PBS/1% DMSO): 90%
inhibition at 1000 µg/mL (heat-denatured ovalbumin; 1 mg/ml compound, 1 mg/ml OVA, PBS/1% DMSO, read-out: inhibition of Thioflavin T fluorescence, compound mixed with pre-formed misfolded OVA): ~50%
formation of Thioflavin T binding sites in heated OVA (heat-denatured ovalbumin; OVA and compound heated together): Inhibition of formation of Thioflavin T binding sites in heated
capture of misfolded protein from solution by immobilized compound [2]: Capture of misfolded protein from solution
appearance of ovalbumin heated in the presence of compound on TEM image (ovalbumin; hydrate): less OVA aggregates after heating in the presence of the; also recorded: Clusters of needle-like structures. No aggregates

COc1cc2c(cc1OC)-c1c(O)c(OC)cc3c1[C@H](C2)N(C)CC3 [compound 201, Thaliporphine, thalicmidine]
influence on tPA binding to immobilized Hb-AGE (Hb-AGE): Stimulated tPA binding to immobilized misfolded protein (Hb-
% tPA binding (after compound incubation), HbAGE (Hb-AGE): 110%
% tPA binding (after compound incubation), Aβ (amyloid-β(1-40) E22Q): 400%
activity at 500 µg/mL [1]: 400%
influence on Thioflavin T fluorescence with misfolded OVA (heat-denatured ovalbumin; 1 mg/ml compound, 1 mg/ml OVA): Inhibition of Thioflavin T fluorescence with misfolded OVA
capture of misfolded protein from solution by immobilized compound [2]: Capture of misfolded protein from solution
appearance of ovalbumin heated in the presence of compound on TEM image (ovalbumin): Spherical aggregates with background of smaller

COc1cc2c(cc1O)C[C@H]1c3c(cc(OC)c(O)c3-2)CCN1C [compound 202, Isoboldine]
influence on tPA binding to immobilized Hb-AGE (Hb-AGE): Stimulated tPA binding to immobilized misfolded protein (Aβ,
% tPA binding (after compound incubation), HbAGE (Hb-AGE): 250%
% tPA binding (after compound incubation), Aβ (amyloid-β(1-40) E22Q): 250%
influence on tPA binding to immobilized Aβ (amyloid-β(1-40) E22Q): Stimulated tPA binding to immobilized misfolded protein (Aβ,
influence on tPA binding to immobilized misfolded OVA [1]: Stimulated tPA binding to immobilized misfolded protein (Aβ,
activity at 500 µg/mL [1]: 420%
influence on Thioflavin T fluorescence with misfolded OVA (heat-denatured ovalbumin; 1 mg/ml compound, 1 mg/ml OVA): Inhibition on Thioflavin T fluorescence with misfolded OVA
capture of misfolded protein from solution by immobilized compound [2]: Capture of misfolded protein from solution
appearance of ovalbumin heated in the presence of compound on TEM image (ovalbumin): Larger and more dense aggregates than control. Small
